Assay results: patent US20240293397A1 (H. Lundbeck A/S, priority 2010, published 2024)
Counter-ions that a name gives are not always drawn. Like-named read-outs stand apart in the source and are kept apart here. One block for each compound: values may come before it.

How the values were obtained:
[1] = long-term (up to two years) relapse prevention study; cited from earlier work
[2] = test system: neurotransmitters serotonin, noradrenalin, dopamine, acetylcholine and histamine; conditions: in vivo nonclinical; cited from earlier work
5-HT3 receptor = target: T1, 5-HT3 receptor (Homo sapiens, UniProt P46098); conditions: in vitro; cited from earlier work
T1 sequence (P46098 24-478): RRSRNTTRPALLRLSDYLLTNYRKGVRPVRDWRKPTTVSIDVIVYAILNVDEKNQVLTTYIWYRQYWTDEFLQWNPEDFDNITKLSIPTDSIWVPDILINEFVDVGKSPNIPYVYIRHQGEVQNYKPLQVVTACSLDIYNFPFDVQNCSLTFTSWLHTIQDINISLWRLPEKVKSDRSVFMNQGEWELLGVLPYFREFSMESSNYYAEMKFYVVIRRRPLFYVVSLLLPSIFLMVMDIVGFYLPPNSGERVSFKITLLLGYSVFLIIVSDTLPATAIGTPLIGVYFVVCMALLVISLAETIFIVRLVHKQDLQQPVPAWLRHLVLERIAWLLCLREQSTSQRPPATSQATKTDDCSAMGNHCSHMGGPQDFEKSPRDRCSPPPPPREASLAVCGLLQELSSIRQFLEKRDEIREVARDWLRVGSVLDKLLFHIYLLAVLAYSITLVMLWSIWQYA

[3] = six weeks, cited from earlier work
5-HT7 receptor = 5-HT7 receptor (Homo sapiens, UniProt P34969); conditions: in vitro; cited from earlier work
5-HT transporter = 5-HT transporter (Homo sapiens, UniProt P31645); conditions: in vitro; cited from earlier work
5-HT1B receptor = 5-HT1B receptor (Homo sapiens, UniProt P28222); conditions: in vitro; cited from earlier work
[4] = Properties of polymorphic forms and salts (stability, solubility, hygroscopicity); assay type: physicochemical
Experimental: The polymorphic forms have different properties.
When a compound is administered as an oral drop formulation, a few drops of a concentrated, liquid formulation of said drug is measured out and added to a glass of water, juice or the like that the patient drinks. As an example, the antidepressant cipramil is provided as an oral drop formulation at 40 mg/ml.

[5] = Long-term effects on body weight, relapse prevention study in patients with major depressive disorder; assay type: in vivo, human; conditions: for Δ weight / ≥7% weight gain: MDD
Excerpt: The recruitment of patients took place over time, and since the end of the study was defined by the last patient having completed the 24 weeks study, some patients received up to 64 weeks double-blind placebo-controlled treatment. This study is also reported in poster NR4-14 presented at the 164th Annual Meeting of the American Psychiatric Association, May 14-18 2011, Honolulu, Hawaii, USA.
(§1) The tables below show the mean difference in weight relative to the start of the open label period and to the time of randomisation and the fraction of patients experiencing equal to or more than […] during the study, i.e. potentially clinically significant increase.

[6] = Long-term effects on body weight, relapse prevention study in patients with generalised anxiety disorder; assay type: in vivo, human; conditions: for Δ weight / ≥7% weight gain: GAD
Excerpt: The recruitment of patients took place over time, and since the end of the study was defined by the last patient having completed at least 24 weeks, some patients received up to 56 weeks double-blind placebo-controlled treatment.
as §1

[7] = long-term study (26-32 weeks); cited from earlier work
[8] = six week study; cited from earlier work
[9] = OCD patients; end of 2.5 years study; cited from earlier work
[10] = 324 patients, eight weeks; cited from earlier work
[11] = 566 patients, eight weeks; cited from earlier work
[12] = week 12, relative to start of open label period (t = 0), 204 patients
[13] = week 24, relative to start of open label period (t = 0), 199 patients
[14] = week 24, relative to time of randomisation (t = 12 weeks), 199 patients
[15] = week 36, relative to start of open label period (t = 0), 157 patients
[16] = week 36, relative to time of randomisation (t = 12 weeks), 157 patients
[17] = week 48, relative to start of open label period (t = 0), 90 patients
[18] = week 48, relative to time of randomisation (t = 12 weeks), 90 patients
[19] = week 60, relative to start of open label period (t = 0), 52 patients
[20] = week 60, relative to time of randomisation (t = 12 weeks), 52 patients
[21] = week 72, relative to start of open label period (t = 0), 19 patients
[22] = week 72, relative to time of randomisation (t = 12 weeks), 19 patients
[23] = week 76, relative to start of open label period (t = 0), 3 patients
[24] = week 76, relative to time of randomisation (t = 12 weeks), 3 patients
[25] = week 20, relative to start of open label period (t = 0), 227 patients
[26] = week 32, relative to start of open label period (t = 0), 220 patients
[27] = week 32, relative to time of randomisation (t = 20 weeks), 221 patients
[28] = week 44, relative to start of open label period (t = 0), 179 patients
[29] = week 44, relative to time of randomisation (t = 20 weeks), 180 patients
[30] = week 56, relative to start of open label period (t = 0), 84 patients
[31] = week 56, relative to time of randomisation (t = 20 weeks), 84 patients
[32] = week 68, relative to start of open label period (t = 0), 28 patients
[33] = week 68, relative to time of randomisation (t = 20 weeks), 28 patients
[34] = week 76, relative to start of open label period (t = 0), 4 patients
[35] = week 76, relative to time of randomisation (t = 20 weeks), 4 patients

Chain of 5-HT1B receptor (P28222 whole entry): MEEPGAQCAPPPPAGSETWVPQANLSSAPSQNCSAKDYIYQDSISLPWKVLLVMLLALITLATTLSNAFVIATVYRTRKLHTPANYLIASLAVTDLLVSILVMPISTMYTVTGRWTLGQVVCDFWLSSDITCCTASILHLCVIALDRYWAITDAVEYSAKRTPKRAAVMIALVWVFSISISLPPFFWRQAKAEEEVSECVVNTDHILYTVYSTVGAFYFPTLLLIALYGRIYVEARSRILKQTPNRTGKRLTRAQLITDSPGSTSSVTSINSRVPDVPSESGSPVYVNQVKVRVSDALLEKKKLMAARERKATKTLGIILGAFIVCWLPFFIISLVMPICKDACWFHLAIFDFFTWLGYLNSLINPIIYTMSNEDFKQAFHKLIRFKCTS
Chain of 5-HT transporter (P31645 whole entry, species assumed): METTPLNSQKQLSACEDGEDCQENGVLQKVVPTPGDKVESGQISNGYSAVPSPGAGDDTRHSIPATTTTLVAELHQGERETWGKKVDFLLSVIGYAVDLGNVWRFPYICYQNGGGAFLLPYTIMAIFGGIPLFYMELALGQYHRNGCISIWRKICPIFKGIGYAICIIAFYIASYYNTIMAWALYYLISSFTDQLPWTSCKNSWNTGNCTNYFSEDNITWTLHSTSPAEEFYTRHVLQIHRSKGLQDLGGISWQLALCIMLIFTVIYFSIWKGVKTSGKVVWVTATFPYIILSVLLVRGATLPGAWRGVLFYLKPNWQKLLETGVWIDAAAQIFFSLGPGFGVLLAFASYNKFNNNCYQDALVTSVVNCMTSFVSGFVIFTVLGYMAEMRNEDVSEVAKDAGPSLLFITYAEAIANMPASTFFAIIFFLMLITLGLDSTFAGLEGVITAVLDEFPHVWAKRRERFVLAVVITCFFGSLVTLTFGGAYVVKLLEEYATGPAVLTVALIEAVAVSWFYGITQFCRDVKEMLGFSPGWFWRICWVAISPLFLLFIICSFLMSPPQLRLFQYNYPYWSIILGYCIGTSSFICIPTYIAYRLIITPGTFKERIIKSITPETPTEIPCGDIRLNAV
Chain of 5-HT7 receptor (P34969 whole entry): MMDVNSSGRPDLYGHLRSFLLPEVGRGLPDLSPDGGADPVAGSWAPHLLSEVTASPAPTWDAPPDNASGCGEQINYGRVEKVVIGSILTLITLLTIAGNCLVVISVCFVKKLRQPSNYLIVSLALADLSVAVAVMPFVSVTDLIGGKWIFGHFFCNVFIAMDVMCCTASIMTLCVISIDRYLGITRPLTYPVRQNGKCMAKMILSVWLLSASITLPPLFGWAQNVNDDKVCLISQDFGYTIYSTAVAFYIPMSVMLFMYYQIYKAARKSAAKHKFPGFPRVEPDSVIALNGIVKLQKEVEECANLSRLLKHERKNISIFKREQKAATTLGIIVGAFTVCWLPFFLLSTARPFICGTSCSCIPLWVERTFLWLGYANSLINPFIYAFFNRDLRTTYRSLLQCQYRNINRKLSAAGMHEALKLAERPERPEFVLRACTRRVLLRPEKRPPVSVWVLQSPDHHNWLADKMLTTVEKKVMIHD

Structure (SMILES): CN(C)CCC=C1c2ccccc2CCc2ccccc21 [amitriptyline]
- proportion of patients showing a PCS increase in body weight [1]: 22%

Structure (SMILES): Cc1ccc(Sc2ccccc2N2CCNCC2)c(C)c1 [Compound I, 1-[2-(2,4-dimethyl-phenylsulfanyl)phenyl]piperazine]
- levels of serotonin, noradrenalin, dopamine, acetylcholine and histamine in specific areas of the brain [2]: enhances levels
- activity at 5-HT3 receptor (5-HT3 receptor): antagonist
- changes in clinical laboratory results, vital signs, weight, or ECG parameters ([3]; MDD patients): no clinically relevant changes
- treatment of depressive and anxious symptoms versus placebo ([3]; approximately 100 patients in each arm, MDD): separates significantly from placebo
- activity at 5-HT7 receptor (5-HT7 receptor): antagonist
- activity at 5-HT transporter (5-HT transporter): inhibitor
- activity at 5-HT1B receptor (5-HT1B receptor): partial agonist

- solubility [4]: high solubility
Structure (SMILES): Cc1ccc(Sc2ccccc2N2CCNCC2)c(C)c1 (racemic) [DL lactate salt of Compound I, DL-lactate salt of 1-[2-(2,4-dimethylphenylsulphanyl)-phenyl]piperazine]

Structure (SMILES): Cc1ccc(Sc2ccccc2N2CCNCC2)c(C)c1 [Compound I HBr, 1-[2-(2,4-dimethyl-phenylsulfanyl)phenyl]piperazine HBr]
- weight gain versus placebo after long-term treatment ([5]; MDD patients, data of tables 1 and 2): no meaningful difference
- Δ weight [5, 12]: 0.0 kg
- ≥7% weight gain [5, 12]: 2.0%
- Δ weight [5, 13]: 0.3 kg
- ≥7% weight gain [5, 13]: 6.5%
- Δ weight [5, 14]: 0.4 kg
- ≥7% weight gain [5, 14]: 2.0%
- Δ weight [5, 15]: 0.6 kg
- ≥7% weight gain [5, 15]: 8.9%
- Δ weight [5, 16]: 0.6 kg
- ≥7% weight gain [5, 16]: 6.4%
- Δ weight [5, 17]: 0.7 kg
- ≥7% weight gain [5, 17]: 8.9%
- Δ weight [5, 18]: 0.9 kg
- ≥7% weight gain [5, 18]: 8.9%
- Δ weight [5, 19]: 0.4 kg
- ≥7% weight gain [5, 19]: 9.6%
- Δ weight [5, 20]: 0.8 kg
- ≥7% weight gain [5, 20]: 13.5%
- Δ weight [5, 21]: -0.2 kg
- ≥7% weight gain [5, 21]: 10.5%
- Δ weight [5, 22]: 0.3 kg
- ≥7% weight gain [5, 22]: 10.5%
- Δ weight [5, 23]: -2.3 kg
- ≥7% weight gain [5, 23]: 0.0%
- Δ weight [5, 24]: -0.8 kg
- ≥7% weight gain [5, 24]: 0.0%
- weight gain versus placebo after long-term treatment ([6]; combined data of tables 1-4 (MDD and GAD patients)): no meaningful difference
- Δ weight [6, 25]: 0.3 kg
- ≥7% weight gain [6, 25]: 2.6%
- Δ weight [6, 26]: 0.5 kg
- ≥7% weight gain [6, 26]: 3.6%
- Δ weight [6, 27]: 0.3 kg
- ≥7% weight gain [6, 27]: 0.9%
- Δ weight [6, 28]: 0.8 kg
- ≥7% weight gain [6, 28]: 8.4%
- Δ weight [6, 29]: 0.5 kg
- ≥7% weight gain [6, 29]: 4.4%
- Δ weight [6, 30]: 1.5 kg
- ≥7% weight gain [6, 30]: 17.9%
- Δ weight [6, 31]: 1.1 kg
- ≥7% weight gain [6, 31]: 10.7%
- Δ weight [6, 32]: 1.5 kg
- ≥7% weight gain [6, 32]: 10.7%
- Δ weight [6, 33]: 1.7 kg
- ≥7% weight gain [6, 33]: 10.7%
- Δ weight [6, 34]: 0.9 kg
- ≥7% weight gain [6, 34]: 0.0%
- Δ weight [6, 35]: 1.6 kg
- ≥7% weight gain [6, 35]: 0.0%

Structure (SMILES): Fc1ccc([C@@H]2CCNC[C@H]2COc2ccc3c(c2)OCO3)cc1 [paroxetine]
- proportion of patients showing a PCS increase in body weight [7]: 25.5%
- weight gain [8]: no weight gain was noted
- percentage of patients with PCS weight increase (7% or above compared to baseline) [9]: 14.3%
- effects on weight [10]: no substantial effects on weight
- weight change [11]: small weight loss

Structure (SMILES): CN(C)CCCN1c2ccccc2CCc2ccc(Cl)cc21 [clomiptramine]
- percentage of patients with PCS weight increase (7% or above compared to baseline) [9]: 34.8%

Structure (SMILES): CN(C)CCCC1(c2ccc(F)cc2)OCc2cc(C#N)ccc21 (stereo not shown) [citalopram]
- percentage of patients with PCS weight increase (7% or above compared to baseline) [9]: 14.3%

Structure (SMILES): CNCCC(Oc1ccc(C(F)(F)F)cc1)c1ccccc1 (stereo not shown) [fluoxetine]
- proportion of patients showing a PCS increase in body weight [7]: 6.6%
- percentage of patients with PCS weight increase (7% or above compared to baseline) [9]: 8.7%

Structure (SMILES): CN[C@H]1CC[C@@H](c2ccc(Cl)c(Cl)c2)c2ccccc21 [sertraline]
- proportion of patients showing a PCS increase in body weight [7]: 4.2%
- percentage of patients with PCS weight increase (7% or above compared to baseline) [9]: 4.5%
